{"source": "patent EP0523846A2", "about": "“1,4-Benzodiazepines with 5-membered heterocyclic rings” (MERCK & CO. INC., priority 1991, dated 1993)", "origin": "cited, not measured here", "conditions": "background statement citing Deschodt-Lanckman et al., Reg. Pept., 2, 15 (1981)", "data": [{"smiles": "CSCC[C@H](NC(=O)[C@H](Cc1ccc(OS(=O)(=O)O)cc1)NC(=O)[C@@H](N)CC(=O)O)C(=O)NCC(=O)N[C@@H](Cc1c[nH]c2ccccc12)C(=O)N[C@@H](CCSC)C(=O)N[C@@H](CC(=O)O)C(=O)N[C@@H](Cc1ccccc1)C(N)=O", "note": "[CCK-8s, H-Asp-Tyr(SO₃H)-Met-Gly-Trp-Met-Asp-Phe-NH₂]", "values": [{"measurement": "half-life", "value": "less than 1 hour"}]}]}
